According to EP1356819A1, “Use of proteasome/ubiquitination inhibitors and/or MMP inhibitors alone or in combination with a growth hormone for treating /preventing catabolic conditions” (Universitair Medisch Centrum Utrecht, priority 2002, dated 2003):
Where two headings read alike, the source gives them in different places. Where a SMILES comes first, the peptide text is derived from it. The star is where a group is joined. Cbz = O=C(OCc1ccccc1)*

What was measured:
[1] = system: GH binding protein (GHBP); assay: Release of GH binding protein into the growth medium, Western blotting with Mab5 antibody; assay type: cell-based, rabbit; settings: 1 µM; growth medium after 150 min at 30°C (Fig. 3)
Experimental: Cell lines and plasmids. Chinese hamster lung cells, ts20, bearing a thermolabile ubiquitin-activating enzyme E1, and E36 control cells were stably transfected with a pCB6 construct containing the full length rabbit GHR cDNA sequence. The newly established cell lines were grown at 30°C in MEMα supplemented with 10% FCS, 4.5 g/l glucose, 100 U/ml penicillin, 100 µg/ml streptomycin and 0.45 mg/ml geneticin (van Kerkhof et al., 2002). Sixteen hours before the start of the experiment, 10 mM butyrate was added to increase the expression of the GHR (van Kerkhof et al., 2002).
Cell lysis, immunoprecipitation, and western blotting. […] Cell lysates were subjected to SDS-polyacrylamide gel electrophoresis using a precast ready gel system (BioRad, Veenendaal, The Netherlands) and transferred to polyvinylidenedifluoride (PVDF) paper. The blots were immunostained using the polyclonal GHR antibodies anti-T or anti-B or the monoclonal antibody mAb5 followed by peroxidase conjugated protein A or rabbit anti-mouse IgG (Pierce Chemical Co.) as described previously (van Kerkhof et al. 2002), and detected by enhanced chemiluminescence (Roche Molecular Biochemicals).
• Fig. 1. […] Quantification of receptors at the cell surface. […] The number GHRs were calculated and expressed as a percentage of untreated cells. • Fig. 3. […]

GHR = assay: Western blotting of GHR species (mature and precursor) in cell lysates after drug treatment; assay type: cell-based, rabbit
Experimental: Cell lines and plasmids. Chinese hamster lung cells, ts20, bearing a thermolabile ubiquitin-activating enzyme E1, and E36 control cells were stably transfected with a pCB6 construct containing the full length rabbit GHR cDNA sequence.
Antibodies and materials. […] Inhibitors were dissolved in dimethylsulfoxide (DMSO).
Cell lysis, immunoprecipitation, and western blotting. Cells (in 6-cm dishes) were lysed on ice in 1.0 mL of lysis buffer containing 1% Triton X-100, 1 mM EDTA in PBS, with 50 mM NaF, 1 mM Na3VO4, 10 µg/ml aprotinin, 10 µg/ml leupeptin, and 1 mM PMSF. Cell lysates were subjected to SDS-polyacrylamide gel electrophoresis using a precast ready gel system (BioRad, Veenendaal, The Netherlands) and transferred to polyvinylidenedifluoride (PVDF) paper.
• Fig. 1. Effect of various drugs on GHR species. Cells were treated for 3 h as follows: lane 1, vehicle; lane 2, MG132 (10 µM); lane 3, Tapi-I (10 µM); lane 4, MG132 (10 µM) and Tapi-I (10 µM); lane 5, cycloheximide (0.1 mM); m, mature; p, precursor GHR. […] Quantification of receptors at the cell surface. […] The number GHRs were calculated and expressed as a percentage of untreated cells. • Fig. 3. Effect of metalloprotease inhibitors on the release of GH binding protein.

[2] = Chinese hamster lung cells transfected with rabbit GHR, treated for 3 h, MG132 10 µM, Tapi-I 10 µM, cycloheximide 0.1 mM, compared with vehicle control (Fig. 1)

Compound | inhibition of shedding of GHBP [1] | amount of precursor GHR (GHR; [2]) | steady state amount of mature GHR (GHR; [2]) | amount of precursor GHR (GHR) | steady state amount of mature GHR (GHR)
CNC(=O)[C@H](Cc1c[nH]c2ccccc12)NC(=O)[C@@H](CC(=O)NO)CC(C)C [GM6001] | almost completely inhibited |  |  |  | 
CC(C)C[C@@H](C=O)NC(=O)[C@H](CC(C)C)NC(=O)[C@H](CC(C)C)NC(=O)OCc1ccccc1 [MG132, carbobenzoxy-L-leucyl-L-leucyl-L-leucinal] (Cbz-Leu-Leu-Leu-aldehyde) |  | remained constant | decreased |  | 
CC(C)C[C@H](CC(=O)NO)C(=O)N[C@@H](Cc1ccc2ccccc2c1)C(=O)N[C@@H](C)C(=O)NCCN [Tapi-I] | almost completely inhibited | unchanged | slight increase |  | 
C[C@@H]1C[C@@H]([C@H](O)CC2CC(=O)NC(=O)C2)C(=O)[C@@H](C)C1 [cycloheximide] |  |  |  | virtually disappeared | virtually disappeared
